In US20260294915A1, “COMBINATION THERAPY COMPRISING A MAT2A INHIBITOR AND A TOPOISOMERASE INHIBITOR, A SPLICING INHIBITOR SULFONAMIDE, OR A KIF18 INHIBITOR” (IDEAYA BIOSCIENCES, INC., priority 2023, published 2026):
Marks after values point to notes of the source that are not given here.

Columns and labels:
Test in all cases: 10-day proliferation (CTG), SPLAM titration + 1000 nM Compound A, Bliss (Example 5; Tables 12-19)
Assay type in all cases: cell-based
Design in all cases: key: GDI scale -100 to 100; 0 = cell number at T0; <0 cytotoxic
[1] = system: UMUC11; settings: for GDI (growth death index), single agent Cmpd A: UMUC11, 1000 nM Compound A
Experimental: (§1) Synergy was measured across the Indisulam titration with 1000 nM Compound A by Bliss Independence analysis. Bliss scores >10 are indicated by “*” and are considered synergistic. […] Synergy as reported using Bliss may be underrepresented within cytotoxic dose ranges. Growth death index values are shown for the combination titration and each single agent Compound A (Cmpd A) and Indisulam on a scale of −100 to 100 with the midpoint (0) being the number of cells at the beginning of the combination (T0). Scores less than 0 are indicated with “**” and are representative of a cytotoxic response. Bliss and GDI values are shown for five MTAP-deficient cell lines: NCI-1H838 (12A), SW900 (12B), RT112/84 (12C), UMUC5 (121D), and UMUC11 (12E).
(§2) A 10-day proliferation assay was performed in a panel of 5 MTAP-deficient and 2 wild type non-small cell lung and bladder cancer cell lines. Optimal cell seeding for all cell lines was determined by assessing the growth over a range of seeding densities in a 384-well format to identify conditions that permitted proliferation for 10 days. Cells were then plated at the optimal seeding density and treated with 20-point, two-fold dilution series of each of four structurally different SPLAMs in combination with a 1000 nM fixed concentration of Compound A. Single agent titrations for Compound A and each SPLAM were included for comparison. Concentrations tested for each SPLAM alone or in combination ranged from 0.04 nM to 20,000 nM. A plate of cells was harvested at the time of compound addition to quantify the number of cells at the start of the combination (T0). For cell quantification, the harvested cells were lysed with Promega CellTiter-Glo (CTG) reagent according to the manufacturer's protocol and the chemiluminescent signal was detected as described in Example 1 above. Cells were incubated with the drug combinations at 37° C. with 5% CO2 for 10 days. Cells were then lysed with CTG and the chemiluminescent signal was measured.
(§3) CTG values obtained after the 10-day treatment were background subtracted and expressed as a percent of the T0 value set at 100%. Data were plotted against compound concentration and fit with a four-parameter equation to generate single agent dose response curves. Percent inhibition was determined for each combination and single agent concentration compared to a DMSO control. In addition, the overall net growth or death of the cells was calculated and reported as a growth death index (GDI) value on a scale of −100 to 100 with the midpoint (0) being the number of cells at the beginning of the combination (T0).
(§4) Predicted inhibition was calculated using (Ea+Eb)−(Ea*Eb) where E equals the effect (inhibition) of each single agent (a and b). A difference between the observed inhibition percentage and the predicted inhibition percentage greater than 10% was considered synergistic. A Bliss score was only reported for combinations eliciting >20% growth inhibition (GDI value <80). Since Bliss is calculated based on growth inhibition, scores within cytotoxic dose ranges may not accurately reflect synergistic cytoxicity.
(§5) Synergy was measured across the E7820 titration with 1000 nM Compound A by Bliss Independence analysis. Bliss scores >10 are indicated by “*” and are considered synergistic. […] Synergy as reported using Bliss may be underrepresented within cytotoxic dose ranges. Growth death index values are shown for the combination titration and each single agent Compound A (Cmpd A) and Indisulam on a scale of −100 to 100 with the midpoint (0) being the number of cells at the beginning of the combination (T0). Scores less than 0 are indicated by “**” and are representative of a cytotoxic response. Bliss and GDI values are shown for five MTAP-deficient cell lines: NCI-1H838 (14A), SW900 (14B), RT112/84 (14C), UMUC5 (141)), and UMUC11 (14E).
(§6) Synergy was measured across the Chloroquinoxaline Sulfonamide titration with 1000 nM Compound A by Bliss Independence analysis.

[2] = system: UMUC5; settings: for GDI (growth death index), single agent Cmpd A: UMUC5, 1000 nM Compound A
Experimental: as §1, §2, §3, §4, §5, §6

[3] = system: SW900; settings: for GDI (growth death index), single agent Cmpd A: SW900, 1000 nM Compound A; for GDI: alone or + 1 uM Cmpd A
Experimental: as §1, §2, §3, §4, §5, §6

[4] = system: RT112/84; settings: for GDI (growth death index), single agent Cmpd A: RT112/84, 1000 nM Compound A
Experimental: as §1, §2, §3, §4, §5, §6

[5] = SPLAM 0.04 nM, alone or + 1 uM Cmpd A
[6] = SPLAM 0.1 nM, alone or + 1 uM Cmpd A
[7] = SPLAM 0.2 nM, alone or + 1 uM Cmpd A
[8] = SPLAM 0.3 nM, alone or + 1 uM Cmpd A
[9] = SPLAM 0.6 nM, alone or + 1 uM Cmpd A
[10] = SPLAM 1.2 nM, alone or + 1 uM Cmpd A
[11] = SPLAM 2.4 nM, alone or + 1 uM Cmpd A
[12] = SPLAM 4.9 nM, alone or + 1 uM Cmpd A
[13] = SPLAM 9.8 nM, alone or + 1 uM Cmpd A
[14] = SPLAM 19.5 nM, alone or + 1 uM Cmpd A
[15] = SPLAM 39.1 nM, alone or + 1 uM Cmpd A
[16] = SPLAM 78.1 nM, alone or + 1 uM Cmpd A
[17] = SPLAM 156.3 nM, alone or + 1 uM Cmpd A
[18] = SPLAM 312.5 nM, alone or + 1 uM Cmpd A
[19] = SPLAM 625 nM, alone or + 1 uM Cmpd A
[20] = SPLAM 1250 nM, alone or + 1 uM Cmpd A
[21] = SPLAM 2500 nM, alone or + 1 uM Cmpd A
[22] = SPLAM 5000 nM, alone or + 1 uM Cmpd A
[23] = SPLAM 10000 nM, alone or + 1 uM Cmpd A
[24] = SPLAM 20000 nM, alone or + 1 uM Cmpd A

Q: What does the source list for `Nc1nc(=O)n(-c2ccccc2Cl)c2nc(C(F)(F)F)ccc12` [Compound A]?
A: GDI (growth death index), single agent Cmpd A ([1]; Table 16E): 100; GDI (growth death index), single agent Cmpd A ([1]; Table 18E): 100; GDI ([1]; single agent Cmpd A, 1000 nM): 100; GDI (growth death index), single agent Cmpd A ([2]; Table 16D): 58; GDI (growth death index), single agent Cmpd A ([2]; Table 18D): 58; GDI ([2]; single agent Cmpd A, 1000 nM): 58; GDI (growth death index), single agent Cmpd A ([3]; Table 16B): 100; GDI (growth death index), single agent Cmpd A ([3]; Table 18B): 100; GDI (growth death index), single agent Cmpd A ([4]; Table 16C): 62; GDI (growth death index), single agent Cmpd A ([4]; Table 18C): 62; GDI ([4]; single agent Cmpd A, 1000 nM): 62

Q: What does the source list for `Cc1ccc(NS(=O)(=O)c2cccc(C#N)c2)c2[nH]cc(C#N)c12` [Compound E7820, 3-cyano-N-(3-cyano-4-methyl-1H-indol-7-yl)benzenesulfonamide]?
A: GDI [1, 5]: 100; GDI [1, 6]: 100; GDI [1, 7]: 100; GDI [1, 8]: 100; GDI [1, 9]: 100; GDI [1, 10]: 100; GDI [1, 11]: 100; GDI [1, 12]: 100; GDI [1, 13]: 100; GDI [1, 14]: 100; GDI [1, 15]: 100; GDI [1, 16]: 100; GDI [1, 17]: 100; GDI [1, 18]: 76; GDI [1, 19]: 31; GDI [1, 20]: 11; GDI [1, 21]: 5; GDI [1, 22]: 4; GDI [1, 23]: 3; GDI [1, 24]: 1; GDI [2, 5]: 100; GDI [2, 6]: 100; GDI [2, 7]: 100; GDI [2, 8]: 100; GDI [2, 9]: 100; GDI [2, 10]: 100; GDI [2, 11]: 100; GDI [2, 12]: 100; GDI [2, 13]: 100; GDI [2, 14]: 100; GDI [2, 15]: 100; GDI [2, 16]: 100; GDI [2, 17]: 99; GDI [2, 18]: 73; GDI [2, 19]: 31; GDI [2, 20]: 15; GDI [2, 21]: 15; GDI [2, 22]: 7; GDI [2, 23]: 6; GDI [2, 24]: 3; GDI ([3]; SPLAM 0.04 nM): 97; GDI ([3]; SPLAM 0.1 nM): 100; GDI ([3]; SPLAM 0.2 nM): 99; GDI ([3]; SPLAM 0.3 nM): 100; GDI ([3]; SPLAM 0.6 nM): 100; GDI ([3]; SPLAM 1.2 nM): 100; GDI ([3]; SPLAM 2.4 nM): 100; GDI ([3]; SPLAM 4.9 nM): 100; GDI ([3]; SPLAM 9.8 nM): 100; GDI ([3]; SPLAM 19.5 nM): 100; GDI ([3]; SPLAM 39.1 nM): 100; GDI ([3]; SPLAM 78.1 nM): 100; GDI ([3]; SPLAM 156.3 nM): 100; GDI ([3]; SPLAM 312.5 nM): 28; GDI ([3]; SPLAM 625 nM): −7**; GDI ([3]; SPLAM 1250 nM): −37**; GDI ([3]; SPLAM 2500 nM): −56**; GDI ([3]; SPLAM 5000 nM): −47**; GDI ([3]; SPLAM 10000 nM): −70**; GDI ([3]; SPLAM 20000 nM): −59**; GDI [4, 5]: 89; GDI [4, 6]: 94; GDI [4, 7]: 100; GDI [4, 8]: 100; GDI [4, 9]: 100; GDI [4, 10]: 100; GDI [4, 11]: 100; GDI [4, 12]: 94; GDI [4, 13]: 100; GDI [4, 14]: 100; GDI [4, 15]: 100; GDI [4, 16]: 100; GDI [4, 17]: 90; GDI [4, 18]: 31; GDI [4, 19]: 6; GDI [4, 20]: −35**; GDI [4, 21]: −84**; GDI [4, 22]: −100**; GDI [4, 23]: −100**; GDI [4, 24]: −100**
